target: T1, kinase-domain human PKCι (Homo sapiens, UniProt P41743); assay: PKCι IC50 IMAP fluorescence polarisation assay, kinase-domain enzyme; type: biochemical; conditions: kinase domain PKCi at 2 μM ATP; read-out: IC50 in IMAP assay against kinase domain PKCi
T1 construct: Recombinant, kinase-domain human PKCι is expressed and purified in-house; made in house
T1 sequence (P41743 254-522 limits assumed): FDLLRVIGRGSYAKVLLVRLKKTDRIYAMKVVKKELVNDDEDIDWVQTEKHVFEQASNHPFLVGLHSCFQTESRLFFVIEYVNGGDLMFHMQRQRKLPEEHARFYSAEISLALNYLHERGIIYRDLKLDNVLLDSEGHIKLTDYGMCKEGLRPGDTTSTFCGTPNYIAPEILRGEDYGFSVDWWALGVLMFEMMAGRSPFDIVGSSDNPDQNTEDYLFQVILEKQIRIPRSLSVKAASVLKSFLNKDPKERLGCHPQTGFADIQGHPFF
Protocol: Assays are based on the ability of PKCι to phosphorylate a commercially available peptide substrate in vitro. […] Recombinant, full-length human PKCι expressed in Sf21 insect cells is also commercially available. Recombinant, kinase-domain human PKCι is expressed and purified in-house.
The procedure below explains how dose response curves for inhibitors of PKCι are obtained.
Compounds to be tested are dissolved in 100% DMSO. […] 1 μl is plated into 384 well black low-binding flat bottomed assay plates which are used immediately. Dilutions and additions of compound to assay plates are carried out using Matrix WellMate® and Matrix PlateMate® Plus liquid handling systems.
The final concentration of peptide substrate in the assay is 100 nM. […] Relevant controls are included, namely no compound and no enzyme. […] The reaction is allowed to incubate for 60 minutes at room temperature, before the reaction is stopped and developed by the addition of 20 μl IMAP™ development reagent (Molecular Devices). IMAP development reagent consists of 0.25% (v/v) IMAP progressive binding reagent, 17% (v/v) IMAP progressive binding buffer A and 3% (v/v) IMAP progressive binding buffer B. The plates are then incubated for 2 hours at room temperature before being read using an appropriate plate reader, for example a Molecular Devices HT Analyst or a BMG Pherastar.

IC50 [nM]	Structure (SMILES)
100 to 1000	Cc1csc2c(NC[C@H](C)N)nc(-c3ccncc3)nc12 [compound 361, (S)-N*1*-(7-Methyl-2-pyridin-4-yl-thieno[3,2-d]pyrimidin-4-yl)-propane-1,2-diamine]

same assay, conditions: kinase domain PKCi at 2 μM ATP; read-out: IC50 in IMAP assay against kinase domain PKCi (Activity)

IC50 [nM]	Structure (SMILES)
1000 to 10000	COc1cccc(C[C@H](N)COc2nc(-c3ccncc3)nc3sc4c(c23)CCCC4)c1 [compound 180, (S)-1-(3-Methoxy-benzyl)-2-(2-pyridin-4-yl-5,6,7,8-tetrahydro-benzo[4,5]thieno[2,3-d]pyrimidin-4-yloxy)-ethylamine]
1000 to 10000	CCc1cc2c(NC[C@@H](C)N)nc(-c3ccncc3)nc2s1 [compound 35, (R)-N*1*-(6-Ethyl-2-pyridin-4-yl-thieno[2,3-d]pyrimidin-4-yl)-propane-1,2-diamine]
10000 to 40000	N[C@H](COc1nc(-c2ccncc2)nc2sc3c(c12)CCCC3)Cc1csc2ccccc12 [compound 177, (S)-1-Benzo[b]thiophen-3-ylmethyl-2-(2-pyridin-4-yl-5,6,7,8-tetrahydro-benzo[4,5]thieno[2,3-d]pyrimidin-4-yloxy)-ethylamine]
1000 to 10000	CN(C)CCOc1nc(-c2ccncc2)nc2sc3c(c12)CCCC3 [compound 135, dimethyl-[2-(2-pyridin-4-yl-5,6,7,8-tetrahydro-benzo[4,5]thieno[2,3-d]pyrimidin-4-yloxy)-ethyl]-amine]
100 to 1000	c1cc(-c2nc(N3CCNCC3)c3c4c(sc3n2)CCCCC4)ccn1 [compound 85, 4-Piperazin-1-yl-2-pyridin-4-yl-6,7,8,9-tetrahydro-5H-10-thia-1,3-diaza-benzo[a]azulene]
10000 to 40000	Cc1n[nH]c(C)c1-c1nc(NC[C@@H](C)N)c2c3c(sc2n1)CCCC3 [compound 193, (R)-N*1*-[2-(3,5-Dimethyl-1H-pyrazol-4-yl)-5,6,7,8-tetrahydro-benzo[4,5]thieno[2,3-d]pyrimidin-4-yl]-propane-1,2-diamine]
1000 to 10000	CCc1cc2c(NC[C@H](C)N)nc(-c3ccncc3)nc2s1 [compound 34, (S)-N*1*-(6-Ethyl-2-pyridin-4-yl-thieno[2,3-d]pyrimidin-4-yl)-propane-1,2-diamine]
100 to 1000	C[C@H](N)COc1nc(-c2ccncc2)nc2sc3c(c12)CCCC3 [compound 144, (S)-1-Methyl-2-(2-pyridin-4-yl-5,6,7,8-tetrahydro-benzo[4,5]thieno[2,3-d]pyrimidin-4-yloxy)-ethylamine]
1000 to 10000	c1cc(-c2nc(N[C@H]3CCNC3)c3c4c(sc3n2)CCCC4)ccn1 [compound 20, (2-Pyridin-4-yl-5,6,7,8-tetrahydro-benzo[4,5]thieno[2,3-d]pyrimidin-4-yl)-(S)-pyrrolidin-3-yl-amine]
1000 to 10000	Cc1ccc(C[C@H](N)COc2nc(-c3ccncc3)nc3sc4c(c23)CCCC4)cc1 [compound 166, (S)-1-(4-Methyl-benzyl)-2-(2-pyridin-4-yl-5,6,7,8-tetrahydro-benzo[4,5]thieno[2,3-d]pyrimidin-4-yloxy)-ethylamine]

target: T2, full-length human PKCι (Homo sapiens, UniProt P41743); assay: PKCι IC50 IMAP fluorescence polarisation assay, full-length enzyme; type: biochemical; conditions: full length PKCi at 15 μM ATP; read-out: IC50 in IMAP assay against full length PKCi
T2 construct: Recombinant, full-length human PKCι expressed in Sf21 insect cells is also commercially available; purchased; host or cells: Sf21 insect cells
T2 sequence (P41743 1-596): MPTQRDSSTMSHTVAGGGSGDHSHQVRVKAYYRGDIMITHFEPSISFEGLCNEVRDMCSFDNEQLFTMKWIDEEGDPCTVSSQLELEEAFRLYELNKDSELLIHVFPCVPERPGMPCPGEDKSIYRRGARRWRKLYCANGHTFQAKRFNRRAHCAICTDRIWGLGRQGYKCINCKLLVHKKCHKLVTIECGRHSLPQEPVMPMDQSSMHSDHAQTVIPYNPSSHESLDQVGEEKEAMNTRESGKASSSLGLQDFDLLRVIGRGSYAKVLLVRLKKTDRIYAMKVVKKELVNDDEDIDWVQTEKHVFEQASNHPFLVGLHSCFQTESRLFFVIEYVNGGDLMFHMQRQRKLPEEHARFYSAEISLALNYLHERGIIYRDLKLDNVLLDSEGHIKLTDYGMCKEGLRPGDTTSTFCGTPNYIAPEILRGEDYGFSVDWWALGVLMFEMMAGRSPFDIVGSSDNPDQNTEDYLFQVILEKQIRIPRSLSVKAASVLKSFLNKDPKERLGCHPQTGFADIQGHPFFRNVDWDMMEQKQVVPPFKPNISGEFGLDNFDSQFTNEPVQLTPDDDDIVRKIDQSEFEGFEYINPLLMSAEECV

Structure (SMILES)	IC50 [nM]
N[C@H](CNc1nc(-c2ccncc2)nc2c(-c3ccc(Br)cc3)csc12)Cc1ccccc1 [compound 326, (S)-N*1*-[7-(4-Bromo-phenyl)-2-pyridin-4-yl-thieno[3,2-d]pyrimidin-4-yl]-3-phenyl-propane-1,2-diamine]	1000 to 10000
NC(CNc1nc(-c2ccncc2F)nc2c(-c3cncnc3)csc12)Cc1ccccc1 (stereo in doubt) [compound 422, (R)-N*1*-[2-(3-Fluoro-pyridin-4-yl)-7-pyrimidin-5-yl-thieno[3,2-d]pyrimidin-4-yl]-3-phenyl-propane-1,2-diamine]	1000 to 10000
NC(=O)CNc1nc(-c2ccncc2)nc2c(Br)csc12 [compound 338, 2-(7-Bromo-2-pyridin-4-yl-thieno[3,2-d]pyrimidin-4-ylamino)-acetamide]	10000 to 40000
N[C@H](CNc1nc(-c2ccncc2)nc2c(-c3ccccc3)csc12)Cc1ccccc1 [compound 417, (S)-3-Phenyl-N*1*-(7-phenyl-2-pyridin-4-yl-thieno[3,2-d]pyrimidin-4-yl)-propane-1,2-diamine]	100 to 1000
COc1ccc(F)cc1-c1c(C)sc2c(NC[C@@H](N)Cc3ccccc3)nc(-c3ccncc3)nc12 [compound 467, (S)-N*1*-[7-(5-Fluoro-2-methoxy-phenyl)-6-methyl-2-pyridin-4-yl-thieno[3,2-d]pyrimidin-4-yl]-3-phenyl-propane-1,2-diamine]	10000 to 40000
Cc1sc2c(N[C@H]3CCNC3)nc(-c3ccncc3)nc2c1Br [compound 332, (7-Bromo-6-methyl-2-pyridin-4-yl-thieno[3,2-d]pyrimidin-4-yl)-(S)-pyrrolidin-3-yl-amine]	1000 to 10000

Second part, the compound after the results:

IC50 [nM]	Structure (SMILES)
100 to 1000	O=C(Nc1cc(-c2nc(N[C@@H]3CCNC3)c3sccc3n2)ccn1)[C@@H]1CCCO1 [compound 578, (S)-Tetrahydro-furan-2-carboxylic acid {4-[4-((R)-pyrrolidin-3-ylamino)-thieno[3,2-d]pyrimidin-2-yl]-pyridin-2-yl}-amide]
1000 to 10000	CNC(=O)Nc1cc(-c2nc(N[C@@H]3CCNC3)c3sccc3n2)ccn1 [compound 583, 1-Methyl-3-{4-[4-((R)-pyrrolidin-3-ylamino)-thieno[3,2-d]pyrimidin-2-yl]-pyridin-2-yl}-urea]
< 100	Cc1cc(Nc2csc3c(NC[C@@H](N)Cc4ccccc4)nc(-c4ccncc4)nc23)no1 [compound 490, N*4*-((S)-2-Amino-3-phenyl-propyl)-N*7*-(5-methyl-isoxazol-3-yl)-2-pyridin-4-yl-thieno[3,2-d]pyrimidine-4,7-diamine]
100 to 1000	CCCNC(=O)c1csc2c(NC[C@@H](N)Cc3ccccc3)nc(-c3ccncc3)nc12 [compound 551, 4-((S)-2-Amino-3-phenyl-propylamino)-2-pyridin-4-yl-thieno[3,2-d]pyrimidine-7-carboxylic acid propylamide]
1000 to 10000	c1ccc(Nc2csc3c(N[C@@H]4CCNC4)nc(-c4ccncc4)nc23)nc1 [compound 487, 2-Pyridin-4-yl-N*7*- pyridin-2-yl-N*4*-(R)-pyrrolidin-3-yl-thieno[3,2-d]pyrimidine-4,7-diamine]
1000 to 10000	O=C(Nc1cc(-c2nc(N[C@@H]3CCNC3)c3sccc3n2)ccn1)c1cnccn1 [compound 615, Pyrazine-2-carboxylic acid {4-[4-((R)-pyrrolidin-3-ylamino)-thieno[3,2-d]pyrimidin-2-yl]-pyridin-2-yl}-amide]
1000 to 10000	CN(C)C(=O)c1csc2c(NC[C@@H](N)Cc3ccccc3)nc(-c3ccncc3)nc12 [compound 550, 4-((S)-2-Amino-3-phenyl-propylamino)-2-pyridin-4-yl-thieno[3,2-d]pyrimidine-7-carboxylic acid dimethylamide]
< 100	N#Cc1csc2c(NC[C@@H](N)Cc3ccccc3)nc(-c3ccncc3)nc12 [compound 560, 4-((S)-2-Amino-3-phenyl-propylamino)-2-pyridin-4-yl-thieno[3,2-d]pyrimidine-7-carbonitrile]
< 100	CC(O)C#Cc1csc2c(NC[C@@H](N)Cc3ccccc3)nc(-c3ccncc3)nc12 (stereo partly drawn) [compound 513, 4-[4-((S)-2-Amino-3-phenyl-propylamino)-2-pyridin-4-yl-thieno[3,2-d]pyrimidin-7-yl]-but-3-yn-2-ol]

same assay, conditions: full length PKCi at 15 μM ATP; read-out: IC50 in IMAP assay against full length PKCi (Activity)

IC50 [nM]	Structure (SMILES)
1000 to 10000	N[C@H](CNc1nc(-c2ccncc2)nc2sc3c(c12)CCOC3)Cc1ccccc1 [compound 82, (S)-3-Phenyl-N*1*-(2-pyridin-4-yl-5,8-dihydro-6H-pyrano[4′,3′:4,5]thieno[2,3-d]pyrimidin-4-yl)-propane-1,2-diamine]

From patent US10183950B2, “Thienopyrimidine inhibitors of atypical protein kinase C” (Cancer Research Technology Limited, priority 2011, dated 2019)
